Numbered stars: 1 amine (or outer) side, 2 acyl side, 3 side chain; on linkers, the order of the positions; unused ones are H or OH. Bridge positions count the residues as written; N and C are the ends. Side chains are listed from the residue outwards. Peptide text beside a SMILES is read from it. * marks the point of attachment. C20 diacid = O=C(O)CCCCCCCCCCCCCCCCCCC(=O)*; γGlu = O=C(O)[C@H](CCC(=O)[*:2])N[*:1]; AEEA = NCCOCCOCC(=O)O
What was measured:
human amylin receptor = molecular target: T1, human amylin receptor (Homo sapiens, UniProt O60896+P30988); assay: Luciferase assay of amylin derivatives in amylin receptor/CRE-luc CHO cell line; format: cell-based; settings: CHO-K1/Ga15/AMY3 CRE-luc cells, 24 hours incubation, F12 medium containing 10% FBS; read-out: EC50
T1 construct: host or cells: CHO-K1/Ga15/AMY3 cells, further stably transfected with a CRE-luciferase plasmid
T1 sequence (P30988 25-474): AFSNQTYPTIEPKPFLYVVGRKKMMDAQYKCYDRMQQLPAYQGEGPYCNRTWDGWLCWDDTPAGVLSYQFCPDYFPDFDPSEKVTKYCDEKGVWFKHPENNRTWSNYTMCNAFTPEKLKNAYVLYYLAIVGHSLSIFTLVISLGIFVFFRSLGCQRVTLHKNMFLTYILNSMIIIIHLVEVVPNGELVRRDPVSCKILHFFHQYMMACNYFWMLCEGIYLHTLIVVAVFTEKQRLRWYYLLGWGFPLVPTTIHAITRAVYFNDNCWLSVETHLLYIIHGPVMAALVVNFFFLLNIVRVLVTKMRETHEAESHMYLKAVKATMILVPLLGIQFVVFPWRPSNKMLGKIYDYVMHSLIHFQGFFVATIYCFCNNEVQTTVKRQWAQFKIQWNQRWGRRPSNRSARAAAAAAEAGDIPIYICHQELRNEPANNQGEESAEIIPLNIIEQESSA
T1 sequence (O60896 24-148 partner): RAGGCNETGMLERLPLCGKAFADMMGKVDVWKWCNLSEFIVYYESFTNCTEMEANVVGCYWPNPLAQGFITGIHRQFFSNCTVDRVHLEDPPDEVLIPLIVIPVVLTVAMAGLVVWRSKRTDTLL
Protocol: The experiment was intended to detect the activity or efficacy of the amylin derivatives on a human amylin receptor in vitro by luciferase assay.
50 μL of growth medium (F12 medium containing 10% FBS) was added into each well of a white 96-well plate, and the stably transfected amylin/CRE-lue CHO cells were inoculated into the white 96-well plate at a density of about 20,000 cells/well for activity determination.

[1] = Freeze-thaw stability of derivatives (freeze-thaw yield by liquid chromatography); format: physicochemical; settings: for Dissolution property: appearance after dissolution at 0.2 mg/ml in 20 mM phosphate buffer solution (PB) (pH 7.0); for Freeze storage property: appearance after overnight storage at −20° C. and thawing to room temperature, 0.2 mg/ml in 20 mM PB (pH 7.0)
Summary of the method: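 Freeze-thaw yield is the ratio of peptide concentration after versus before one overnight −20° C freeze and room-temperature thaw, both quantified by RP-HPLC of supernatant after centrifugation. Samples were 0.2 mg/ml freeze-dried derivative in 20 mM PB, pH 7.0.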

| EC50 (human amylin receptor) [nM] | Dissolution property [1] | Freeze storage property [1] | SMILES |
| --- | --- | --- | --- |
| 0.119 | Clear | Clear | CC[C@H](C)[C@H](NC(=O)[C@@H]1CCCN1C(=O)CNC(=O)[C@H](CC(C)C)NC(=O)[C@H](CCCCNC(=O)COCCOCCNC(=O)COCCOCCNC(=O)CC[C@H](NC(=O)CCCCCCCCCCCCCCCCCCC(=O)O)C(=O)O)NC(=O)[C@H](CC(N)=O)NC(=O)[C@H](CO)NC(=O)[C@H](CO)NC(=O)[C@H](Cc1c[nH]cn1)NC(=O)[C@H](CCCNC(=N)N)NC(=O)[C@H](CC(C)C)NC(=O)[C@H](Cc1ccccc1)NC(=O)[C@H](CCC(=O)O)NC(=O)[C@H](C)NC(=O)[C@H](CC(C)C)NC(=O)[C@H](CCCNC(=N)N)NC(=O)[C@H](CCC(N)=O)NC(=O)[C@@H](NC(=O)[C@H](C)NC(=O)[C@@H]1CSSC[C@H](NC(=O)[C@@H](N)CCCNC(=N)N)C(=O)N[C@@H](CC(N)=O)C(=O)N[C@@H]([C@@H](C)O)C(=O)N[C@@H](C)C(=O)N[C@@H]([C@@H](C)O)C(=O)N1)[C@@H](C)O)C(=O)N[C@@H](CC(C)C)C(=O)N1CCC[C@H]1C(=O)N1CCC[C@H]1C(=O)N[C@H](C(=O)N[C@@H](CC(N)=O)C(=O)N[C@H](C(=O)NCC(=O)N[C@@H](CO)C(=O)N[C@@H](CC(N)=O)C(=O)N[C@H](C(=O)N1CCC[C@H]1C(N)=O)[C@@H](C)O)C(C)C)[C@@H](C)O [PD002] (H-RCNTATCATQRLAEFLRHSSNK([AEEA-AEEA-γGlu-C20 diacid])LGPILPPTNVGSNTP-NH2; disulfide 2-7 (inferred); N-terminus assumed) |
| 0.14 | Clear | Clear | CC[C@H](C)[C@H](NC(=O)[C@@H]1CCCN1C(=O)CNC(=O)[C@H](CCCCNC(=O)COCCOCCNC(=O)COCCOCCNC(=O)CC[C@H](NC(=O)CCCCCCCCCCCCCCCCCCC(=O)O)C(=O)O)NC(=O)[C@H](CC(N)=O)NC(=O)[C@H](CC(N)=O)NC(=O)[C@H](CO)NC(=O)[C@H](CO)NC(=O)[C@H](Cc1c[nH]cn1)NC(=O)[C@H](CCCNC(=N)N)NC(=O)[C@H](CC(C)C)NC(=O)[C@H](Cc1ccccc1)NC(=O)[C@H](CCC(=O)O)NC(=O)[C@H](C)NC(=O)[C@H](CC(C)C)NC(=O)[C@H](CCCNC(=N)N)NC(=O)[C@H](CCC(N)=O)NC(=O)[C@@H](NC(=O)[C@H](C)NC(=O)[C@@H]1CSSC[C@H](NC(=O)[C@@H](N)CCCNC(=N)N)C(=O)N[C@@H](CC(N)=O)C(=O)N[C@@H]([C@@H](C)O)C(=O)N[C@@H](C)C(=O)N[C@@H]([C@@H](C)O)C(=O)N1)[C@@H](C)O)C(=O)N[C@@H](CC(C)C)C(=O)N1CCC[C@H]1C(=O)N1CCC[C@H]1C(=O)N[C@H](C(=O)N[C@@H](CC(N)=O)C(=O)N[C@H](C(=O)NCC(=O)N[C@@H](CO)C(=O)N[C@@H](CC(N)=O)C(=O)N[C@H](C(=O)N1CCC[C@H]1C(N)=O)[C@@H](C)O)C(C)C)[C@@H](C)O [PD003] (H-RCNTATCATQRLAEFLRHSSNNK([AEEA-AEEA-γGlu-C20 diacid])GPILPPTNVGSNTP-NH2; disulfide 2-7 (inferred); N-terminus assumed) |
| 0.102 | Clear | Clear | CC[C@H](C)[C@H](NC(=O)[C@@H]1CCCN1C(=O)[C@H](CCCCNC(=O)COCCOCCNC(=O)COCCOCCNC(=O)CC[C@H](NC(=O)CCCCCCCCCCCCCCCCCCC(=O)O)C(=O)O)NC(=O)[C@H](CC(C)C)NC(=O)[C@H](CC(N)=O)NC(=O)[C@H](CC(N)=O)NC(=O)[C@H](CO)NC(=O)[C@H](CO)NC(=O)[C@H](Cc1c[nH]cn1)NC(=O)[C@H](CCCNC(=N)N)NC(=O)[C@H](CC(C)C)NC(=O)[C@H](Cc1ccccc1)NC(=O)[C@H](CCC(=O)O)NC(=O)[C@H](C)NC(=O)[C@H](CC(C)C)NC(=O)[C@H](CCCNC(=N)N)NC(=O)[C@H](CCC(N)=O)NC(=O)[C@@H](NC(=O)[C@H](C)NC(=O)[C@@H]1CSSC[C@H](NC(=O)[C@@H](N)CCCNC(=N)N)C(=O)N[C@@H](CC(N)=O)C(=O)N[C@@H]([C@@H](C)O)C(=O)N[C@@H](C)C(=O)N[C@@H]([C@@H](C)O)C(=O)N1)[C@@H](C)O)C(=O)N[C@@H](CC(C)C)C(=O)N1CCC[C@H]1C(=O)N1CCC[C@H]1C(=O)N[C@H](C(=O)N[C@@H](CC(N)=O)C(=O)N[C@H](C(=O)NCC(=O)N[C@@H](CO)C(=O)N[C@@H](CC(N)=O)C(=O)N[C@H](C(=O)N1CCC[C@H]1C(N)=O)[C@@H](C)O)C(C)C)[C@@H](C)O [PD004] (H-RCNTATCATQRLAEFLRHSSNNLK([AEEA-AEEA-γGlu-C20 diacid])PILPPTNVGSNTP-NH2; disulfide 2-7 (inferred); N-terminus assumed) |
| 0.129 | Clear | Clear | CC[C@H](C)[C@H](NC(=O)[C@@H]1CCCN1C(=O)CNC(=O)[C@H](CC(C)C)NC(=O)[C@H](CC(N)=O)NC(=O)[C@H](CCCCNC(=O)CC[C@H](NC(=O)CCCCCCCCCCCCCCCCCCC(=O)O)C(=O)O)NC(=O)[C@H](CO)NC(=O)[C@H](CO)NC(=O)[C@H](Cc1c[nH]cn1)NC(=O)[C@H](CCCNC(=N)N)NC(=O)[C@H](CC(C)C)NC(=O)[C@H](Cc1ccccc1)NC(=O)[C@H](CCC(=O)O)NC(=O)[C@H](C)NC(=O)[C@H](CC(C)C)NC(=O)[C@H](CCCNC(=N)N)NC(=O)[C@H](CCC(N)=O)NC(=O)[C@@H](NC(=O)[C@H](C)NC(=O)[C@@H]1CSSC[C@H](NC(=O)[C@@H](N)CCCNC(=N)N)C(=O)N[C@@H](CC(N)=O)C(=O)N[C@@H]([C@@H](C)O)C(=O)N[C@@H](C)C(=O)N[C@@H]([C@@H](C)O)C(=O)N1)[C@@H](C)O)C(=O)N[C@@H](CC(C)C)C(=O)N1CCC[C@H]1C(=O)N1CCC[C@H]1C(=O)N[C@H](C(=O)N[C@@H](CC(N)=O)C(=O)N[C@H](C(=O)NCC(=O)N[C@@H](CO)C(=O)N[C@@H](CC(N)=O)C(=O)N[C@H](C(=O)N1CCC[C@H]1C(N)=O)[C@@H](C)O)C(C)C)[C@@H](C)O [PD006] (H-RCNTATCATQRLAEFLRHSSK([γGlu-C20 diacid])NLGPILPPTNVGSNTP-NH2; disulfide 2-7 (inferred); N-terminus assumed) |
| 0.205 | Clear | Clear | CC[C@H](C)[C@H](NC(=O)[C@@H]1CCCN1C(=O)CNC(=O)[C@H](CC(C)C)NC(=O)[C@H](CCCCNC(=O)CC[C@H](NC(=O)CCCCCCCCCCCCCCCCCCC(=O)O)C(=O)O)NC(=O)[C@H](CC(N)=O)NC(=O)[C@H](CO)NC(=O)[C@H](CO)NC(=O)[C@H](Cc1c[nH]cn1)NC(=O)[C@H](CCCNC(=N)N)NC(=O)[C@H](CC(C)C)NC(=O)[C@H](Cc1ccccc1)NC(=O)[C@H](CCC(=O)O)NC(=O)[C@H](C)NC(=O)[C@H](CC(C)C)NC(=O)[C@H](CCCNC(=N)N)NC(=O)[C@H](CCC(N)=O)NC(=O)[C@@H](NC(=O)[C@H](C)NC(=O)[C@@H]1CSSC[C@H](NC(=O)[C@@H](N)CCCNC(=N)N)C(=O)N[C@@H](CC(N)=O)C(=O)N[C@@H]([C@@H](C)O)C(=O)N[C@@H](C)C(=O)N[C@@H]([C@@H](C)O)C(=O)N1)[C@@H](C)O)C(=O)N[C@@H](CC(C)C)C(=O)N1CCC[C@H]1C(=O)N1CCC[C@H]1C(=O)N[C@H](C(=O)N[C@@H](CC(N)=O)C(=O)N[C@H](C(=O)NCC(=O)N[C@@H](CO)C(=O)N[C@@H](CC(N)=O)C(=O)N[C@H](C(=O)N1CCC[C@H]1C(N)=O)[C@@H](C)O)C(C)C)[C@@H](C)O [PD007] (H-RCNTATCATQRLAEFLRHSSNK([γGlu-C20 diacid])LGPILPPTNVGSNTP-NH2; disulfide 2-7 (inferred); N-terminus assumed) |
| 0.281 | Clear | Clear | CC[C@H](C)[C@H](NC(=O)[C@@H]1CCCN1C(=O)CNC(=O)[C@H](CCCCNC(=O)CC[C@H](NC(=O)CCCCCCCCCCCCCCCCCCC(=O)O)C(=O)O)NC(=O)[C@H](CC(N)=O)NC(=O)[C@H](CC(N)=O)NC(=O)[C@H](CO)NC(=O)[C@H](CO)NC(=O)[C@H](Cc1c[nH]cn1)NC(=O)[C@H](CCCNC(=N)N)NC(=O)[C@H](CC(C)C)NC(=O)[C@H](Cc1ccccc1)NC(=O)[C@H](CCC(=O)O)NC(=O)[C@H](C)NC(=O)[C@H](CC(C)C)NC(=O)[C@H](CCCNC(=N)N)NC(=O)[C@H](CCC(N)=O)NC(=O)[C@@H](NC(=O)[C@H](C)NC(=O)[C@@H]1CSSC[C@H](NC(=O)[C@@H](N)CCCNC(=N)N)C(=O)N[C@@H](CC(N)=O)C(=O)N[C@@H]([C@@H](C)O)C(=O)N[C@@H](C)C(=O)N[C@@H]([C@@H](C)O)C(=O)N1)[C@@H](C)O)C(=O)N[C@@H](CC(C)C)C(=O)N1CCC[C@H]1C(=O)N1CCC[C@H]1C(=O)N[C@H](C(=O)N[C@@H](CC(N)=O)C(=O)N[C@H](C(=O)NCC(=O)N[C@@H](CO)C(=O)N[C@@H](CC(N)=O)C(=O)N[C@H](C(=O)N1CCC[C@H]1C(N)=O)[C@@H](C)O)C(C)C)[C@@H](C)O [PD008] (H-RCNTATCATQRLAEFLRHSSNNK([γGlu-C20 diacid])GPILPPTNVGSNTP-NH2; disulfide 2-7 (inferred)) |
